{"source": "ChEMBL document CHEMBL5154795", "about": "“Exploring the structure-activity relationships of diphenylurea as an antibacterial scaffold active against methicillin- and vancomycin-resistant Staphylococcus aureus” (Eur J Med Chem, 2022)", "key": {"Staphylococcus aureus [1]": {"test_system": "Staphylococcus aureus", "assay": "Antibacterial activity against methicillin-resistant Staphylococcus aureus USA300 incubated for 18 to 20 hrs by broth microdilution method", "format": "functional", "settings": "time 18-20 hrs"}, "Staphylococcus aureus [2]": {"test_system": "Staphylococcus aureus", "assay": "Antibacterial activity against methicillin-sensitive Staphylococcus aureus ATCC 6538 incubated for 18 to 20 hrs by broth microdilution method", "format": "functional", "settings": "time 18-20 hrs"}, "Staphylococcus aureus [3]": {"test_system": "Staphylococcus aureus", "assay": "Antibacterial activity against methicillin-sensitive Staphylococcus aureus NRS 107 incubated for 18 to 20 hrs by broth microdilution method", "format": "functional", "settings": "time 18-20 hrs"}, "Staphylococcus aureus [4]": {"test_system": "Staphylococcus aureus", "assay": "Antibacterial activity against methicillin-resistant Staphylococcus aureus NRS 119 incubated for 18 to 20 hrs by broth microdilution method", "format": "functional", "settings": "time 18-20 hrs"}, "Staphylococcus aureus [5]": {"test_system": "Staphylococcus aureus", "assay": "Antibacterial activity against methicillin-resistant Staphylococcus aureus NRS 123 (USA400) incubated for 18 to 20 hrs by broth microdilution method", "format": "functional", "settings": "time 18-20 hrs"}, "Staphylococcus aureus [6]": {"test_system": "Staphylococcus aureus", "assay": "Antibacterial activity against methicillin-resistant Staphylococcus aureus NRS 384 (USA300) incubated for 18 to 20 hrs by broth microdilution method", "format": "functional", "settings": "time 18-20 hrs"}, "Staphylococcus aureus [7]": {"test_system": "Staphylococcus aureus", "assay": "Antibacterial activity against methicillin-resistant Staphylococcus aureus NRS 385 (USA500) incubated for 18 to 20 hrs by broth microdilution method", "format": "functional", "settings": "time 18-20 hrs"}, "Staphylococcus aureus [8]": {"test_system": "Staphylococcus aureus", "assay": "Antibacterial activity against methicillin-resistant Staphylococcus aureus NRS 386 (USA700) incubated for 18 to 20 hrs by broth microdilution method", "format": "functional", "settings": "time 18-20 hrs"}, "Staphylococcus aureus [9]": {"test_system": "Staphylococcus aureus", "assay": "Antibacterial activity against Vancomycin-resistant Staphylococcus aureus 9 incubated for 18 to 20 hrs by broth microdilution method", "format": "functional", "settings": "time 18-20 hrs"}, "Staphylococcus aureus [10]": {"test_system": "Staphylococcus aureus", "assay": "Antibacterial activity against Vancomycin-resistant Staphylococcus aureus 10 incubated for 18 to 20 hrs by broth microdilution method", "format": "functional", "settings": "time 18-20 hrs"}, "Staphylococcus aureus [11]": {"test_system": "Staphylococcus aureus", "assay": "Antibacterial activity against Vancomycin-resistant Staphylococcus aureus 12 incubated for 18 to 20 hrs by broth microdilution method", "format": "functional", "settings": "time 18-20 hrs"}, "[12]": {"test_system": "Staphylococcus epidermidis", "assay": "Antibacterial activity against Staphylococcus epidermidis NRS 101 incubated for 18 to 20 hrs by broth microdilution method", "format": "functional", "settings": "time 18-20 hrs"}, "[13]": {"assay": "Cytotoxicity against human Caco-2 cells assessed as cell viability at upto 128 ug/ml incubated for 24 hrs by MTS assay relative to control", "format": "toxicity, cell-based", "settings": "up to 128 µg/mL, read-out: Activity"}, "[14]": {"assay": "Cytotoxicity against human HaCaT cells assessed as cell viability at 64 ug/ml incubated for 24 hrs by MTS assay relative to control", "format": "toxicity, cell-based", "settings": "at 64 µg/mL, read-out: Activity"}, "[15]": {"assay": "Hemolytic activity in rabbit erythrocytes at 32 ug/ml incubated for 30 min by absorbance based analysis relative to control", "format": "toxicity, cell-based, Oryctolagus cuniculus, Erythrocyte", "settings": "at 32 µg/mL, read-out: Activity"}, "Staphylococcus aureus [16]": {"test_system": "Staphylococcus aureus", "assay": "Antibacterial activity against methicillin-resistant Staphylococcus aureus USA400 NRS 123 assessed as time of post-antibiotic effect at 5 times MIC incubated for 2 hrs followed by compound washout and measured every single 1 hr", "format": "functional"}, "Staphylococcus aureus [17]": {"test_system": "Staphylococcus aureus", "assay": "Potentiation of vancomycin-induced antibacterial activity against vancomycin-resistant Staphylococcus aureus 1 assessed as vancomycin MIC at 0.5 times MIC incubated for 18 to 20 hrs by broth microdilution method", "format": "functional", "settings": "time 18-20 hrs"}, "Staphylococcus aureus [18]": {"test_system": "Staphylococcus aureus", "assay": "Potentiation of vancomycin-induced antibacterial activity against vancomycin-resistant Staphylococcus aureus 2 assessed as vancomycin MIC at 0.5 times MIC incubated for 18 to 20 hrs by broth microdilution method", "format": "functional", "settings": "time 18-20 hrs"}, "Staphylococcus aureus [19]": {"test_system": "Staphylococcus aureus", "assay": "Potentiation of vancomycin-induced antibacterial activity against vancomycin-resistant Staphylococcus aureus 3 assessed as vancomycin MIC at 0.5 times MIC incubated for 18 to 20 hrs by broth microdilution method", "format": "functional", "settings": "time 18-20 hrs"}, "Staphylococcus aureus [20]": {"test_system": "Staphylococcus aureus", "assay": "Potentiation of vancomycin-induced antibacterial activity against vancomycin-resistant Staphylococcus aureus 3b assessed as vancomycin MIC at 0.5 times MIC incubated for 18 to 20 hrs by broth microdilution method", "format": "functional", "settings": "time 18-20 hrs"}, "Staphylococcus aureus [21]": {"test_system": "Staphylococcus aureus", "assay": "Potentiation of vancomycin-induced antibacterial activity against vancomycin-resistant Staphylococcus aureus 9 assessed as vancomycin MIC at 0.5 times MIC incubated for 18 to 20 hrs by broth microdilution method", "format": "functional", "settings": "time 18-20 hrs"}, "Staphylococcus aureus [22]": {"test_system": "Staphylococcus aureus", "assay": "Potentiation of vancomycin-induced antibacterial activity against vancomycin-resistant Staphylococcus aureus 10 assessed as vancomycin MIC at 0.5 times MIC incubated for 18 to 20 hrs by broth microdilution method", "format": "functional", "settings": "time 18-20 hrs"}, "Staphylococcus aureus [23]": {"test_system": "Staphylococcus aureus", "assay": "Potentiation of vancomycin-induced antibacterial activity against vancomycin-resistant Staphylococcus aureus 12 assessed as vancomycin MIC at 0.5 times MIC incubated for 18 to 20 hrs by broth microdilution method", "format": "functional", "settings": "time 18-20 hrs"}, "Staphylococcus aureus [24]": {"test_system": "Staphylococcus aureus", "assay": "Potentiation of vancomycin-induced antibacterial activity against vancomycin-resistant Staphylococcus aureus 13 assessed as vancomycin MIC at 0.5 times MIC incubated for 18 to 20 hrs by broth microdilution method", "format": "functional", "settings": "time 18-20 hrs"}, "Staphylococcus aureus [25]": {"test_system": "Staphylococcus aureus", "assay": "Antibacterial activity against methicillin-resistant Staphylococcus aureus USA300 infected in BALB/c mouse assessed as recovery of body weight loss administered 72 hrs post infection topically twice daily for 4 days", "format": "functional, organism-based", "settings": "time 4.0 day"}, "Staphylococcus aureus [26]": {"test_system": "Staphylococcus aureus", "assay": "Antibacterial activity against methicillin-resistant Staphylococcus aureus USA300 infected in BALB/c mouse assessed as reduction in bacterial count administered 72 hrs post infection topically twice daily for 4 days", "format": "functional, organism-based", "settings": "time 4.0 day"}, "Staphylococcus aureus [27]": {"test_system": "Staphylococcus aureus", "assay": "Antibacterial activity against methicillin-resistant Staphylococcus aureus USA300 infected in BALB/c mouse assessed as reduction in bacterial count in spleen administered 72 hrs post infection topically twice daily for 4 days", "format": "functional, organism-based", "settings": "time 4.0 day"}, "Caco-2 [28]": {"test_system": "Caco-2", "assay": "Cytotoxicity against human Caco-2 cells assessed as reduction in cell viability at 64 ug/ml incubated for 24 hrs by MTS assay", "format": "toxicity, cell-based", "settings": "caco-2, 24 h, dose 64 µg/ml"}, "Staphylococcus aureus [29]": {"test_system": "Staphylococcus aureus", "assay": "Induction of drug resistance in methicillin-resistant Staphylococcus aureus USA400 NRS 123 assessed as fold increase in MIC measured after 15 passages by broth microdilution assay", "format": "functional"}, "Caco-2 [30]": {"test_system": "Caco-2", "assay": "Cytotoxicity against human Caco-2 cells at 128 ug/ml incubated for 24 hrs by MTS assay", "format": "toxicity, cell-based", "settings": "caco-2, 24 h, dose 128 µg/ml"}}, "note": "The source made the active and inactive calls. The rule behind the calls is not given here."}
{"smiles": "C/C(=N\\NC(=N)N)c1ccc(NC(=O)Nc2ccc(-c3ccco3)cc2)cc1", "values": [{"measurement": "MIC", "setting": "Staphylococcus aureus [1]", "result": 4, "unit": "µg/mL"}, {"measurement": "MIC", "setting": "Staphylococcus aureus [2]", "result": 2, "unit": "µg/mL"}, {"measurement": "MIC", "setting": "Staphylococcus aureus [3]", "result": 8, "unit": "µg/mL"}, {"measurement": "MIC", "setting": "Staphylococcus aureus [4]", "result": 4, "unit": "µg/mL"}, {"measurement": "MIC", "setting": "Staphylococcus aureus [5]", "result": 2, "unit": "µg/mL"}, {"measurement": "MIC", "setting": "Staphylococcus aureus [6]", "result": 4, "unit": "µg/mL"}, {"measurement": "MIC", "setting": "Staphylococcus aureus [7]", "result": 8, "unit": "µg/mL"}, {"measurement": "MIC", "setting": "Staphylococcus aureus [8]", "result": 2, "unit": "µg/mL"}, {"measurement": "MIC", "setting": "Staphylococcus aureus [9]", "result": 4, "unit": "µg/mL"}, {"measurement": "MIC", "setting": "Staphylococcus aureus [10]", "result": 4, "unit": "µg/mL"}, {"measurement": "MIC", "setting": "Staphylococcus aureus [11]", "result": 4, "unit": "µg/mL"}, {"measurement": "MIC", "setting": "[12]", "result": 2, "unit": "µg/mL"}, {"measurement": "viability at 24 h", "setting": "[13]", "result": 100, "unit": "%"}, {"measurement": "viability at 24 h, 64 ug/ml", "setting": "[14]", "result": 100, "unit": "%"}, {"measurement": "hemolysis at 0.5 h, 32 ug/ml", "setting": "[15]", "result": "< 2", "unit": "%"}, {"measurement": "Time", "setting": "Staphylococcus aureus [16]", "result": 5, "unit": "h"}, {"measurement": "MIC", "setting": "Staphylococcus aureus [17]", "result": 2, "unit": "µg/mL"}, {"measurement": "MIC", "setting": "Staphylococcus aureus [18]", "result": 8, "unit": "µg/mL"}, {"measurement": "MIC", "setting": "Staphylococcus aureus [19]", "result": 2, "unit": "µg/mL"}, {"measurement": "MIC", "setting": "Staphylococcus aureus [20]", "result": 8, "unit": "µg/mL"}, {"measurement": "MIC", "setting": "Staphylococcus aureus [21]", "result": 128, "unit": "µg/mL"}, {"measurement": "MIC", "setting": "Staphylococcus aureus [22]", "result": 8, "unit": "µg/mL"}, {"measurement": "MIC", "setting": "Staphylococcus aureus [23]", "result": 512, "unit": "µg/mL"}, {"measurement": "MIC", "setting": "Staphylococcus aureus [24]", "result": 512, "unit": "µg/mL"}, {"measurement": "Activity", "setting": "Staphylococcus aureus [25]", "result": "Active"}]}
{"smiles": "C/C(=N\\NC(=N)N)c1ccc(NC(=O)Nc2ccc(Cc3ccccc3)cc2)cc1", "values": [{"measurement": "MIC", "setting": "Staphylococcus aureus [1]", "result": 4, "unit": "µg/mL"}]}
{"smiles": "C/C(=N\\NC(=N)N)c1ccc(NC(=O)Nc2ccc(-c3ccccc3)cc2)cc1", "values": [{"measurement": "MIC", "setting": "Staphylococcus aureus [1]", "result": 4, "unit": "µg/mL"}]}
{"smiles": "CC(=O)O[C@H]1C[C@@]2(C)[C@@H](C[C@@H](O)[C@H]3[C@@]4(C)CC[C@@H](O)[C@@H](C)[C@@H]4CC[C@@]32C)/C1=C(\\CCC=C(C)C)C(=O)O", "values": [{"measurement": "Activity", "setting": "Staphylococcus aureus [25]", "result": "Active"}, {"measurement": "Activity", "setting": "Staphylococcus aureus [26]", "result": "Active"}, {"measurement": "Activity", "setting": "Staphylococcus aureus [27]", "result": "Active"}]}
{"smiles": "C/C(=N\\NC(=N)N)c1ccc(NC(=O)Nc2ccc(-c3cc4ccccc4s3)cc2)cc1", "values": [{"measurement": "MIC", "setting": "Staphylococcus aureus [1]", "result": 4, "unit": "µg/mL"}]}
{"smiles": "C/C(=N\\NC(=N)N)c1ccc(NC(=O)Nc2ccc(C3CC3)cc2)cc1", "values": [{"measurement": "MIC", "setting": "Staphylococcus aureus [1]", "result": "≥ 64", "unit": "µg/mL"}]}
{"smiles": "C/C(=N\\NC(=N)N)c1ccc(NC(=O)Nc2ccc(/C=C/c3ccccc3)cc2)cc1", "values": [{"measurement": "Activity", "setting": "Caco-2 [28]", "result": "Non-Toxic"}, {"measurement": "fold change (FC)", "setting": "Staphylococcus aureus [29]", "result": 1}, {"measurement": "MIC", "setting": "Staphylococcus aureus [2]", "result": 16, "unit": "µg/mL"}, {"measurement": "MIC", "setting": "Staphylococcus aureus [3]", "result": 8, "unit": "µg/mL"}, {"measurement": "MIC", "setting": "Staphylococcus aureus [4]", "result": 16, "unit": "µg/mL"}, {"measurement": "MIC", "setting": "Staphylococcus aureus [5]", "result": 4, "unit": "µg/mL"}, {"measurement": "MIC", "setting": "Staphylococcus aureus [6]", "result": 2, "unit": "µg/mL"}, {"measurement": "MIC", "setting": "Staphylococcus aureus [7]", "result": 8, "unit": "µg/mL"}, {"measurement": "MIC", "setting": "Staphylococcus aureus [8]", "result": 4, "unit": "µg/mL"}, {"measurement": "MIC", "setting": "Staphylococcus aureus [9]", "result": 16, "unit": "µg/mL"}, {"measurement": "MIC", "setting": "Staphylococcus aureus [10]", "result": 8, "unit": "µg/mL"}, {"measurement": "MIC", "setting": "Staphylococcus aureus [11]", "result": 8, "unit": "µg/mL"}, {"measurement": "MIC", "setting": "[12]", "result": 8, "unit": "µg/mL"}, {"measurement": "viability at 24 h, 64 ug/ml", "setting": "[14]", "result": 100, "unit": "%"}, {"measurement": "Time", "setting": "Staphylococcus aureus [16]", "result": 3, "unit": "h"}, {"measurement": "Activity", "setting": "Caco-2 [30]", "result": "Toxic"}]}
